Reference: patent US9867802B2, “Method of treating Scedosporium spp. infection” (BIODIEM LIMITED, priority 2012, dated 2018)
≈ marks a conversion by molar mass, not a printed value. Where two headings read alike, the source gives them in different places.

Experiments:
S. apiospermum = assay: In vitro susceptibility (MIC) against Scedosporium spp.; assay type: cell-based
Procedure: (§1) In vitro susceptibility to Compound (1) was assessed against Scedosporium spp. A stock solution of 1 mg/ml of Compound (1) was made in 100% DMSO. The stock was aliquoted and stored at −80° C.
(§2) Three strains Scedosporium prolificans and 3 strains of S. apiospermum/P. boydii were tested. Each isolate was tested in duplicate and on two separate occasions.

Scedosporium prolificans = assay: as above; assay type: cell-based; conditions: for MIC: Lomentospora prolificans, duplicate on two occasions, read-out: Arithmetic Mean MIC (mg/L) of 4 readings
Procedure: as §1, §2

P. boydii = assay: as above; assay type: cell-based, Pseudallescheria boydii; conditions: strain P. boydii 01-10-1391979, duplicate on two occasions, read-out: Arithmetic Mean MIC (mg/L) of 4 readings
Procedure: as §1, §2

C/C(=C\c1ccc2c(c1)OCO2)[N+](=O)[O-] [Compound (1), 3,4-methylenedioxy-β-methyl-β-nitrostyrene]
MIC (S. apiospermum; read-out: Arithmetic Mean MIC (mg/L) of 4 readings, strain S. apsiopermum 04-10-2013595, duplicate on two occasions): 2 mg/L (≈ 9.65 µM) | MIC (S. apiospermum; strain S. apiospermum 04-10-1932310, duplicate on two occasions, read-out: Arithmetic Mean MIC (mg/L) of 4 readings): 4 mg/L (≈ 19.3 µM) | MIC (Scedosporium prolificans; strain S. prolificans 04-11-1472398): 2 mg/L (≈ 9.65 µM) | MIC (Scedosporium prolificans; strain S. prolificans (Austin Pathology)): 1 mg/L (≈ 4.83 µM) | MIC (Scedosporium prolificans; strain S. prolificans MB 10028425): 2 mg/L (≈ 9.65 µM) | Relative activity among Scedosporium spp. (Scedosporium prolificans; comparison of species tested in Table 1): most active against S. prolificans | MIC (P. boydii): 4 mg/L (≈ 19.3 µM)

O=[N+]([O-])/C=C/c1ccc2c(c1)OCO2 [Compound (2), 3,4-methylenedioxy-β-nitrostyrene]
Solubility in organic solvents (Solubility profile; acetone, alcohol, acetic acid and a majority of organic solvents): soluble | Solubility in water (Solubility profile; water): non-soluble
